Reference: ChEMBL document CHEMBL5537110, “SIRT1-dependent mitochondrial biogenesis supports therapeutic effects of 4-butyl-polyhydroxybenzophenone compounds against NAFLD” (Eur J Med Chem, 2023)
The source made the active and inactive calls. The rule behind the calls is not given here.

Columns and labels:
[1] = tested on: HepG2; experiment: Inhibition of liver injury in 40% FBS-induced steatosis human HepG2 cells model assessed as decrease in GDH level at 0.2 to 5 uM incubated with compound for 24 hrs followed by replacement with steatosis inducing DMEM with 40% FBS medium; assay type: functional, cell-based; conditions: dose 0.2-5 µM
[2] = tested on: HepG2; experiment: Recovery of mitochondrial biogenesis in 40% FBS-induced steatosis human HepG2 cells model assessed as increase in mitochondrial COX1 protein expression incubated for 24 hrs by western blot analysis; assay type: functional, cell-based; conditions: dose 0.2-5 µM
[3] = tested on: Rattus norvegicus; experiment: Hepatoprotective activity against high fat diet-fed NAFLD Sprague-Dawley rat model assessed as less ballooning degeneration and smaller fatty droplets in hepatocytes at 12.3 to 61.4 mg/kg, IG administered via gavage for 4 weeks by Hematoxylin-Eosin staining based analysis; assay type: functional, organism-based; conditions: dose 12.3-61.4 mg/kg
[4] = tested on: HepG2; experiment: Inhibition of mitochondrial membrane potential dissipation in 40% FBS-induced steatosis human HepG2 cells model assessed as increase in mitochondrial membrane potential incubated in steatosis inducing DMEM with 40% FBS medium for 24 hrs followed by compound treatment by JC-1 staining based fluorescence microscopy; assay type: functional, cell-based; conditions: Mitochondria, dose 0.2-5 µM
[5] = tested on: HepG2; experiment: Recovery of mitochondrial biogenesis in 40% FBS-induced steatosis human HepG2 cells model assessed as increase in mitochondrial ND6 protein expression incubated for 24 hrs by western blot analysis; assay type: functional, cell-based; conditions: dose 0.2-5 µM
[6] = tested on: HepG2; experiment: Inhibition of liver injury in human HepG2 cells assessed as increase in liver protection index by measuring increase in ratio of GSH to GSSG at 0.2 to 5 uM incubated with compound for 24 hrs followed by replacement with steatosis inducing DMEM with 40% FBS medium; assay type: functional, cell-based; conditions: dose 0.2-5 µM
[7] = tested on: HepG2; experiment: Recovery of mitochondrial biogenesis in 40% FBS-induced steatosis human HepG2 cells model assessed as increase in SIRT1 mRNA expression incubated for 24 hrs by qRT-PCR analysis; assay type: functional, cell-based; conditions: dose 0.2-5 µM
[8] = tested on: HepG2; experiment: Recovery of mitochondrial activity in 40% FBS-induced steatosis human HepG2 cells model assessed as increase in number of mitochondria incubated with compound for 24 hrs followed by replacement with steatosis inducing DMEM with 40% FBS medium by MitoTracker Green based fluorescence analysis; assay type: functional, cell-based; conditions: dose 0.2-5 µM
[9] = target: T1, Peroxisome proliferator-activated receptor gamma coactivator 1-alpha (Homo sapiens) (UniProt Q9UBK2); experiment: Binding affinity to PGC1alpha in human HepG2 cells assessed as increase in thermal stabilization of protein at 320 uM pretreated with compound for 30 mins followed by incubation at 40 to 65 degC for 3 mins by CETSA-WB analysis; assay type: cell-based; conditions: filed as activator, time 33.0 min
T1 sequence (whole entry): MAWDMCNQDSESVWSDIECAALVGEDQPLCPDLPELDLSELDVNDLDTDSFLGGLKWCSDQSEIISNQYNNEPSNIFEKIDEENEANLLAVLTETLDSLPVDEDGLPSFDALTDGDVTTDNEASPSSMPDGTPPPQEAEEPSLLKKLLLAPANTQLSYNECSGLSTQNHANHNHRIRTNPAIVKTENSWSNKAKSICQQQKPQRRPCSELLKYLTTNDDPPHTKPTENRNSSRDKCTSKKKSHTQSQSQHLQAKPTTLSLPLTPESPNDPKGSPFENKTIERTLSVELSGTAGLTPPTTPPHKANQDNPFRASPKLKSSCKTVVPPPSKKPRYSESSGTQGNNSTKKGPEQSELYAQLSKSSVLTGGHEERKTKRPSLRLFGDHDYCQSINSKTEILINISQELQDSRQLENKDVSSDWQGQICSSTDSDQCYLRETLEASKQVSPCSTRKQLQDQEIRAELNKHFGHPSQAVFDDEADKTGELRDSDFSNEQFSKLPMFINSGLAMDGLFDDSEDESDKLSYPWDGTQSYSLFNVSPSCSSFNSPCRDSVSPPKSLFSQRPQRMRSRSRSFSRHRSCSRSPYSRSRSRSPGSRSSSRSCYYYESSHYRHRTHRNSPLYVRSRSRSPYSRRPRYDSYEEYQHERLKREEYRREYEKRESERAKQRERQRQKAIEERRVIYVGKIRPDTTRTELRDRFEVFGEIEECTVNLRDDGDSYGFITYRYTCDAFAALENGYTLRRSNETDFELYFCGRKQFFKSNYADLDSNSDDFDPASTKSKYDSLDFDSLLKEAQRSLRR

[10] = target: T1, Peroxisome proliferator-activated receptor gamma coactivator 1-alpha (Homo sapiens); experiment: Binding affinity to PGC1alpha in human HepG2 cells assessed as increase in protein abundance at 80 to 320 uM pretreated with compound for 30 mins followed by proteolysis for 15 mins by DARTS assay; assay type: cell-based; conditions: filed as activator, dose 80-320 µM, time 45.0 min
[11] = tested on: HepG2; experiment: Inhibition of liver injury in 40% FBS-induced steatosis human HepG2 cells model assessed as increase in liver protection index by measuring increase in GSH level at 0.2 to 5 uM incubated in steatosis inducing DMEM with 40% FBS medium for 24 hrs followed by compound treatment; assay type: functional, cell-based; conditions: dose 0.2-5 µM
[12] = tested on: HepG2; experiment: Recovery of mitochondrial activity in 40% FBS-induced steatosis human HepG2 cells model assessed as increase in number of mitochondria incubated in steatosis inducing DMEM with 40% FBS medium for 24 hrs followed by compound treatment by MitoTracker Green based fluorescence analysis; assay type: functional, cell-based; conditions: dose 0.2-5 µM
[13] = tested on: Rattus norvegicus; experiment: Hepatoprotective activity against high fat diet-fed NAFLD Sprague-Dawley rat model assessed as decrease in serum gamma-GT level administered intragastrically via gavage for 4 weeks; assay type: functional, organism-based; conditions: dose 12.3-61.4 mg/kg, route ig
[14] = tested on: HepG2; experiment: Induction of SIRT1/PGC1alpha interaction in human HepG2 cells at 5 umol/L by co-immunoprecipitataion analysis; assay type: cell-based; conditions: filed as activator, dose 5.0 µmol/L
[15] = tested on: HepG2; experiment: Induction of mitochondrial biogenesis in human HepG2 cells assessed as PGC1alpha mRNA expression incubated for 24 hrs in presence of SIRT1 inhibitor, EX527 by qRT-PCR analysis; assay type: functional, cell-based
[16] = tested on: HepG2; experiment: Recovery of mitochondrial biogenesis in 40% FBS-induced steatosis human HepG2 cells model assessed as increase in TFAM mRNA expression incubated for 24 hrs by qRT-PCR analysis; assay type: functional, cell-based; conditions: dose 0.2-5 µM
[17] = tested on: HepG2; experiment: Inhibition of lipid toxicity in 40% FBS-induced steatosis human HepG2 cells model assessed as decrease in lipid accumulation at 0.2 to 5 uM incubated in steatosis inducing DMEM with 40% FBS medium for 24 hrs followed by compound treatment by Oil red O staining based analysis; assay type: functional, cell-based; conditions: dose 0.2-5 µM
[18] = tested on: Rattus norvegicus; experiment: Hepatoprotective activity against high fat diet-fed NAFLD Sprague-Dawley rat model assessed as decrease in serum total cholesterol content administered intragastrically via gavage for 4 weeks; assay type: functional, organism-based; conditions: dose 12.3-61.4 mg/kg, route ig
[19] = tested on: HepG2; experiment: Inhibition of lipid toxicity in 40% FBS-induced steatosis human HepG2 cells model assessed as decrease in lipid accumulation at 0.2 to 5 uM incubated with compound for 24 hrs followed by replacement with steatosis inducing DMEM with 40% FBS medium by Oil red O staining based analysis; assay type: functional, cell-based; conditions: dose 0.2-5 µM
[20] = tested on: HepG2; experiment: Recovery of mitochondrial biogenesis in 40% FBS-induced steatosis human HepG2 cells model assessed as increase in SIRT1 protein expression incubated for 24 hrs by western blot analysis; assay type: functional, cell-based; conditions: dose 0.2-5 µM

Compound: CC(C)(C)c1ccc(C(=O)c2ccc(O)c(O)c2)cc1
- inhibition [1]: Active
- Activity [2]: Dose-Dependent Effect
- Activity [3]: Active
- inhibition [4]: Dose-Dependent Effect
- Activity [5]: Dose-Dependent Effect
- inhibition [6]: Active
- Activity [7]: Dose-Dependent Effect
- Activity [8]: Dose-Dependent Effect
- Activity [9]: Active
- Activity [10]: Active
- inhibition [11]: Active
- Activity [12]: Dose-Dependent Effect
- Activity [13]: Active
- Activity [14]: Active
- Activity [15]: inactive
- Activity [16]: Dose-Dependent Effect
- inhibition [17]: Active
- Activity [18]: Dose-Dependent Effect
- inhibition [19]: Active
- Activity [20]: Dose-Dependent Effect
